According to patent US20250059231A1, “Protease inhibitors” (priority 2021, published 2025):
Where a SMILES comes first, the peptide text is derived from it. [ ]: non-standard residue; d: D form. The star is where a group is joined. Arachidoyl = CCCCCCCCCCCCCCCCCCCC(=O)*; Palmitoyl = CCCCCCCCCCCCCCCC(=O)*; hPhe = N[C@@H](CCc1ccccc1)C(=O)O; Phg = N[C@H](C(=O)O)c1ccccc1; Pip = O=C(O)[C@@H]1CCCCN1; N(Me)OMe = CON(C)*

What was measured:
DENV protease = biological target: T1, DENV protease (Dengue virus type 2, UniProt P29990); assay: biochemical; conditions: read-out: inhibition of DENV
T1 construct: The virus-encoded dengue protease comprises the amino-terminal 180 amino acids of NS3 (NS3pro) of the polyprotein
Protocol: (§1) Dilutions were made starting from 10 mM stock solutions in DMSO and final concentrations were measured in triplicates. The inhibitors were preincubated for 15 min with DENV protease (100 nM) in the assay buffer (50 mM Tris-HCl pH 9.0, ethylene glycol (10% v/v), and 0.0016% Brij 58). The enzymatic reaction was initiated by the addition of the FRET substrate (final concentration 50 μM) to obtain a final assay volume of 100 μL per well. The enzymatic activity was monitored for 15 min and determined as a slope of relative fluorescence units per second (RFU/s) for each concentration. The mean of the triplicates were plotted against the corresponding concentration in CDDVault to determine the IC50-values. Analogous procedures were used to determine the inhibitory potency on WNV (Kühl et al., J. Med. Chem. 2020, 63 (15): 8179-8197) and ZIKA protease (Nitsche et al., ACS Med. Chem. Lett. 2019 Feb. 14; 10 (2): 168-174). For selectivity screening of active candidates, similar biochemical assays with human serine proteases trypsin (Weigel et al., J. Med. Chem. 2015, 58 (19), 7719-7733.) and/or thrombin (Nitsche et al., J. Med. Chem. 2013, 56 (21), 8389-8403) were used.

human Trypsin = human Trypsin (Homo sapiens, UniProt P07477); assay: Selectivity screening, human serine protease trypsin; type: biochemical; conditions: read-out: inhibition of human Trypsin
Protocol: as §1, with “By catalytic activity of the protease, the cleaved substrate results in increased fluorescence that can be monitored using a BMG Labtech Fluostar OPTIMA Microtiter fluorescence plate reader (excitation wavelength of 320 nm and a monitored emission wavelength of 405 nm). Dilutions” for “Dilutions”

human Thrombin = human Thrombin (Homo sapiens, UniProt P00734); assay: Selectivity screening, human serine protease thrombin; type: biochemical; conditions: at 5 μM; read-out: inhibition of human Thrombin
Protocol: as §1, with “By catalytic activity of the protease, the cleaved substrate results in increased fluorescence that can be monitored using a BMG Labtech Fluostar OPTIMA Microtiter fluorescence plate reader (excitation wavelength of 320 nm and a monitored emission wavelength of 405 nm). Dilutions” for “Dilutions”

WNV protease [1] = biological target: T2, WNV protease (West Nile virus, UniProt P06935); assay: WNV protease assay (analogous procedure); type: biochemical; conditions: read-out: IC50 for WNNV
T2 construct: a trypsin-like serine protease domain in the N-terminal region of the flaviviral NS3 proteins

WNV protease [2] = biological target: T2, WNV protease; assay: WNV protease assay (analogous procedure); type: biochemical; conditions: for inhibition at 1 µM: read-out: inhibition of WNNV
Protocol: as §1, with “By catalytic activity of the protease, the cleaved substrate results in increased fluorescence that can be monitored using a BMG Labtech Fluostar OPTIMA Microtiter fluorescence plate reader (excitation wavelength of 320 nm and a monitored emission wavelength of 405 nm). Dilutions” for “Dilutions”

ZIKA protease = biological target: T3, ZIKA protease (Zika virus, UniProt Q32ZE1); assay: biochemical; conditions: for inhibition at 1 µM / inhibition at 50 µM: read-out: inhibition of ZIKV
T3 construct: a trypsin-like serine protease domain in the N-terminal region of the flaviviral NS3 proteins
Protocol: as §1, with “By catalytic activity of the protease, the cleaved substrate results in increased fluorescence that can be monitored using a BMG Labtech Fluostar OPTIMA Microtiter fluorescence plate reader (excitation wavelength of 320 nm and a monitored emission wavelength of 405 nm). Dilutions” for “Dilutions”

T3 sequence (Q32ZE1 1499-1676): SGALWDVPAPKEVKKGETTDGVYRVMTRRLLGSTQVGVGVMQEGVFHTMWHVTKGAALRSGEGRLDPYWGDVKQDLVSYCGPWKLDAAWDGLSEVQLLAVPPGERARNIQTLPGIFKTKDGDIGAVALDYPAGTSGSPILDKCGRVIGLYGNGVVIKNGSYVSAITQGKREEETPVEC
T3 sequence (Q32ZE1 1421-1460): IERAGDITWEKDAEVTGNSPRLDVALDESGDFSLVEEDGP
T2 sequence (P06935 1424-1463): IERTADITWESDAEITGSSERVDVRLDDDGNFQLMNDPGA
T2 sequence (P06935 1502-1679): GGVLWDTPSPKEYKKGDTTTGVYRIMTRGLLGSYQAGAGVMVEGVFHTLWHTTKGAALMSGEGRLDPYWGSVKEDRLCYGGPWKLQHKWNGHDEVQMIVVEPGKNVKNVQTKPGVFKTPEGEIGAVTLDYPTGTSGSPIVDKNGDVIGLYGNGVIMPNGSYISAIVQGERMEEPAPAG
T1 sequence (P29990 1398-1437): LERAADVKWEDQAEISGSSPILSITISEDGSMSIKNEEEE
T1 sequence (P29990 1476-1653): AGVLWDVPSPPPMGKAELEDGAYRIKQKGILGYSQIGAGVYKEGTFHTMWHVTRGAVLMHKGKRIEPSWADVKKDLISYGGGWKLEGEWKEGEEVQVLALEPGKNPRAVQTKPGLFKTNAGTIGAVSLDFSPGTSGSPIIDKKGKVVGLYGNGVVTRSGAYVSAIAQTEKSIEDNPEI

CCCCCCCCCCCCCCCC(=O)N[C@@H](CCCCN)C(=O)N1CCC[C@H]1C(=O)N[C@H](C(=O)N[C@@H](CCCCN)C(N)=O)c1ccccc1 [compound 13] (Palmitoyl-KP[Phg]K-NH2)
inhibition at 50 µM (DENV protease): ≥ 25% | inhibition at 5 µM (human Trypsin): < 10% | inhibition at 25 µM (human Trypsin): < 20% | inhibition at 5 µM (human Thrombin): < 5% | IC50 (WNV protease [1]): ≤ 40 µM | inhibition at 50 µM (WNV protease [2]): ≥ 25%

CCCCCCCCCCCCCCCC(=O)N[C@@H](CCCCN)C(=O)N1CCCC[C@H]1C(=O)N[C@H](C(=O)N[C@@H](CCCCN)C(N)=O)c1ccccc1 [compound 16] (Palmitoyl-K[Pip][Phg]K-NH2)
inhibition at 50 µM (DENV protease): ≥ 25% | inhibition at 5 µM (human Trypsin): < 10% | inhibition at 25 µM (human Trypsin): < 20% | inhibition at 5 µM (human Thrombin): < 5% | IC50 (WNV protease [1]): ≤ 40 µM | inhibition at 50 µM (WNV protease [2]): ≥ 25%

CCCCCCCCCCCCCCCC(=O)N[C@@H](CCCCN)C(=O)N[C@@H](C)C(=O)N[C@@H](C)C(=O)N[C@@H](Cc1ccccc1)C(N)=O [compound 17] (Palmitoyl-KAAF-NH2)
inhibition at 50 µM (DENV protease): ≥ 25% | inhibition at 5 µM (human Trypsin): < 10% | inhibition at 25 µM (human Trypsin): < 20% | inhibition at 5 µM (human Thrombin): < 5% | IC50 (WNV protease [1]): ≤ 40 µM | inhibition at 50 µM (WNV protease [2]): ≥ 25%

CCCCCCCCCCCCCCCC(=O)N[C@@H](C)C(=O)N[C@@H](CCCNC(=N)N)C(=O)N[C@@H](CCC(N)=O)C(=O)N[C@@H](CCCCN)B(O)O [compound 39]
IC50 (ZIKA protease): ≤ 25 µM | inhibition at 1 µM (ZIKA protease): ≥ 10% | inhibition at 50 µM (ZIKA protease): ≥ 65% | inhibition at 1 µM (DENV protease): ≥ 20% | inhibition at 50 µM (DENV protease): ≥ 25% | IC50 (WNV protease [1]): ≤ 40 µM

CCCCCCCCCCCCCCCC(=O)N[C@@H](CCCNC(=N)N)C(=O)N[C@@H](CCC(N)=O)C(=O)N[C@@H](CCCCN)B(O)O [compound 41]
inhibition at 1 µM (DENV protease): ≥ 20% | inhibition at 50 µM (DENV protease): ≥ 25% | IC50 (WNV protease [1]): ≤ 40 µM

CC(=O)N[C@@H](C)C(=O)N[C@@H](CCCNC(=N)N)C(=O)N[C@@H](CCC(N)=O)C(=O)N[C@@H](CCCCN)B(O)O [compound 48]
IC50 (ZIKA protease): ≤ 25 µM | inhibition at 1 µM (ZIKA protease): ≥ 10% | inhibition at 50 µM (ZIKA protease): ≥ 65% | inhibition at 1 µM (DENV protease): ≥ 20% | inhibition at 50 µM (DENV protease): ≥ 25% | IC50 (WNV protease [1]): ≤ 40 µM | inhibition at 50 µM (WNV protease [2]): ≥ 25%

CCCCCCCCCCCCCCCC(=O)N[C@@H](CCCCN)C(=O)N[C@@H](C)C(=O)N[C@@H](C)C(=O)N[C@@H](CCc1ccccc1)C(N)=O [compound 90] (Palmitoyl-KAA[hPhe]-NH2)
inhibition at 50 µM (DENV protease): ≥ 25% | inhibition at 5 µM (human Trypsin): < 10% | inhibition at 25 µM (human Trypsin): < 20% | inhibition at 5 µM (human Thrombin): < 5% | IC50 (WNV protease [1]): ≤ 40 µM | inhibition at 50 µM (WNV protease [2]): ≥ 25%

CCCCCCCCCCCCCCCCCCCC(=O)N[C@@H](CCCCN)C(=O)N[C@@H](C)C(=O)N[C@@H](C)C(=O)N[C@H](CCCCN)C(N)=O [compound 132] (Arachidoyl-KAA[dK]-NH2)
inhibition at 1 µM (DENV protease): ≥ 20% | inhibition at 50 µM (DENV protease): ≥ 25% | inhibition at 25 µM (human Trypsin): < 20% | inhibition at 5 µM (human Thrombin): < 5% | IC50 (WNV protease [1]): ≤ 40 µM | inhibition at 1 µM (WNV protease [2]): ≥ 10% | inhibition at 50 µM (WNV protease [2]): ≥ 25%

CCCCCCCCCCCCCCCC(=O)N[C@@H](CCCCN)C(=O)N1CCC[C@H]1C(=O)N[C@@H](C)C(=O)N[C@@H](CCCCN)C(N)=O [compound 156] (Palmitoyl-KPAK-NH2)
inhibition at 50 µM (DENV protease): ≥ 25% | IC50 (WNV protease [1]): ≤ 40 µM

CCCCCCCCCCCCCCCC(=O)N[C@@H](CCCCN)C(=O)N[C@@H](C)C(=O)N[C@@H](Cc1cnc[nH]1)C(N)=O [compound 167] (Palmitoyl-Lys-Ala-His-NH2)
IC50 (ZIKA protease): ≤ 25 µM | inhibition at 1 µM (ZIKA protease): ≥ 10% | inhibition at 50 µM (ZIKA protease): ≥ 65% | inhibition at 1 µM (DENV protease): ≥ 20% | inhibition at 5 µM (human Thrombin): < 5% | IC50 (WNV protease [1]): ≤ 40 µM | inhibition at 50 µM (WNV protease [2]): ≥ 25%

CCCCCCCCCCCCCCCC(=O)N[C@@H](CCCCN)C(=O)N[C@@H](C)C(=O)N[C@@H](CCCCN)C(=O)C(N)=O [compound 176]
IC50 (ZIKA protease): ≤ 25 µM | inhibition at 50 µM (ZIKA protease): ≥ 65% | inhibition at 50 µM (DENV protease): ≥ 25% | inhibition at 5 µM (human Thrombin): < 5% | IC50 (WNV protease [1]): ≤ 40 µM | inhibition at 50 µM (WNV protease [2]): ≥ 25%

CCCCCCCCCCCCCCCC(=O)N[C@@H](CCCCN)C(=O)N[C@@H](C)C(=O)N[C@@H](C)C(=O)N[C@@H](CCCCN)C(=O)N(C)OC [compound 177] (Palmitoyl-KAAK-{N(Me)OMe})
inhibition at 50 µM (DENV protease): ≥ 25%

CCCCCCCCCCCCCCCC(=O)N[C@@H](CCCCN)C(=O)N[C@@H](C)C(=O)N[C@@H](CCCCN)C(=O)NS(=O)(=O)C1CC1 [compound 178]
inhibition at 50 µM (DENV protease): ≥ 25%

CCCCCCCCCCCCCCCC(=O)N[C@@H](CCCCN)C(=O)N[C@@H](C)C(=O)N[C@H](CCCCN)C(=O)NS(=O)(=O)C1CC1 [compound 179]
inhibition at 50 µM (DENV protease): ≥ 25%

CCCCCCCCCCCCCCCC(=O)N[C@@H](CCCCN)C(=O)N[C@@H](C)C(=O)N[C@@H](C)C(=O)N[C@H](C=O)CCCCN [compound 180] (Palmitoyl-KAAK-aldehyde)
inhibition at 50 µM (DENV protease): ≥ 25% | inhibition at 5 µM (human Thrombin): < 5% | IC50 (WNV protease [1]): ≤ 40 µM | inhibition at 50 µM (WNV protease [2]): ≥ 25%

CCCCCCCCCCCCCCCC(=O)N[C@@H](CCCCN)C(=O)N[C@@H](C)C(=O)N[C@@H](CCCCN)B(O)O [compound 182]
inhibition at 50 µM (DENV protease): ≥ 25% | IC50 (WNV protease [1]): ≤ 40 µM | inhibition at 50 µM (WNV protease [2]): ≥ 25%

CCCCCCCCCCCCCCCC(=O)N[C@@H](CCCCN)C(=O)N[C@@H](C)C(=O)N[C@@H](C)C(=O)N[C@@H](CCCCN)C(O)O [compound 183]
inhibition at 50 µM (DENV protease): ≥ 25% | IC50 (WNV protease [1]): ≤ 40 µM | inhibition at 50 µM (WNV protease [2]): ≥ 25%

CCCCCCCCCCCCCCCC(=O)N[C@@H](CCCCN)C(=O)N[C@@H](C)C(=O)N[C@@H](CCCCN)C(=O)N(C)C [compound 184] (Palmitoyl-Lys-Ala-Lys-NMe2)
inhibition at 50 µM (DENV protease): ≥ 25% | inhibition at 50 µM (WNV protease [2]): ≥ 25%

CCCCCCCCCCCCCCCC(=O)N[C@@H](CCCCN)C(=O)N[C@@H](C)C(=O)N[C@@H](CCCCN)C(=O)N(C)OC [compound 185]
inhibition at 50 µM (DENV protease): ≥ 25% | inhibition at 50 µM (WNV protease [2]): ≥ 25%

CCCCCCCCCCCCCCCC(=O)N[C@@H](CCCCN)C(=O)N[C@@H](C)C(=O)N[C@H](C=O)CCCCN [compound 186] (Palmitoyl-Lys-Ala-Lys-aldehyde)
inhibition at 50 µM (DENV protease): ≥ 25% | inhibition at 5 µM (human Thrombin): < 5% | IC50 (WNV protease [1]): ≤ 40 µM | inhibition at 1 µM (WNV protease [2]): ≥ 10% | inhibition at 50 µM (WNV protease [2]): ≥ 25%

CCCCCCCCCCCCCCCC(=O)N[C@@H](CCCCN)C(=O)N[C@@H](C)C(=O)N[C@@H](C)C(=O)N[C@@H](CCCCN)C(=O)N(C)C [compound 187] (Palmitoyl-KAAK-NMe2)
inhibition at 50 µM (DENV protease): ≥ 25%

CCCCCCCCCCCCCCCC(=O)N[C@@H](CCCCN)C(=O)N[C@@H](C)C(=O)N[C@@H](CCCCN)C(=O)O [compound 188] (Palmitoyl-Lys-Ala-Lys-OH)
inhibition at 50 µM (DENV protease): ≥ 25%

CCCCCCCCCCCCCCCC(=O)N[C@@H](Cc1c[nH]c2ccccc12)C(=O)N[C@@H](C)C(=O)N[C@@H](C)C(=O)N[C@@H](Cc1c[nH]c2ccccc12)C(N)=O [compound 191] (Palmitoyl-WAAW-NH2)
inhibition at 50 µM (WNV protease [2]): ≥ 25%

CCCCCCCCCCCCCCCC(=O)N[C@@H](CCCCN)C(=O)N[C@@H](C)C(=O)N[C@@H](Cc1ccccc1)C(N)=O [compound 192] (Palmitoyl-Lys-Ala-Phe-NH2)
inhibition at 50 µM (DENV protease): ≥ 25% | inhibition at 50 µM (WNV protease [2]): ≥ 25%

CCCCCCCCCCCCCCCC(=O)N[C@H](CCCCN)C(=O)N[C@@H](C)C(=O)N[C@@H](C)C(=O)N[C@@H](Cc1ccccc1)C(N)=O [compound 193] (Palmitoyl-[dK]AAF-NH2)
inhibition at 50 µM (DENV protease): ≥ 25% | IC50 (WNV protease [1]): ≤ 40 µM | inhibition at 50 µM (WNV protease [2]): ≥ 25%
